Assay results from patent publication US20260217698A1 (BEYANG THERAPEUTICS CO., LTD., priority 2022, published 2026).

Tests used:
VEGFR3 = target: T1, VEGFR3 (Homo sapiens, UniProt P35916); assay: Kinase inhibition, Mobility Shift Assay/IMAP, VEGFR3; type: biochemical
T1 construct: purchased Invitrogen PV4129
Text: (§1) This assay directly monitored the ability of compounds to inhibit kinase phosphorylation by measuring non-phosphorylated and phosphorylated substrates in kinase reactions by using Mobility Shift Assays/IMAP™ analysis.
(§2) Read the conversion ratio data on CaliperEZ Reader II. Convert conversion rates into inhibition ratio data.
(§3) “Min” indicates the readout of the control well without the addition of enzymes; and “Max” indicates the readout of the control well with the addition of DMSO Fit IC50 values with XL Fit excel add-in version […].
(§4) X indicates the log value of compound concentration, and Y indicates the inhibition ratio (% inhibition).

VEGFR1 = target: T2, VEGFR1 (Homo sapiens, UniProt P17948); assay: Kinase inhibition, Mobility Shift Assay/IMAP, VEGFR1; type: biochemical
T2 construct: purchased Invitrogen PR6731B
T2 sequence (P17948 27-1338): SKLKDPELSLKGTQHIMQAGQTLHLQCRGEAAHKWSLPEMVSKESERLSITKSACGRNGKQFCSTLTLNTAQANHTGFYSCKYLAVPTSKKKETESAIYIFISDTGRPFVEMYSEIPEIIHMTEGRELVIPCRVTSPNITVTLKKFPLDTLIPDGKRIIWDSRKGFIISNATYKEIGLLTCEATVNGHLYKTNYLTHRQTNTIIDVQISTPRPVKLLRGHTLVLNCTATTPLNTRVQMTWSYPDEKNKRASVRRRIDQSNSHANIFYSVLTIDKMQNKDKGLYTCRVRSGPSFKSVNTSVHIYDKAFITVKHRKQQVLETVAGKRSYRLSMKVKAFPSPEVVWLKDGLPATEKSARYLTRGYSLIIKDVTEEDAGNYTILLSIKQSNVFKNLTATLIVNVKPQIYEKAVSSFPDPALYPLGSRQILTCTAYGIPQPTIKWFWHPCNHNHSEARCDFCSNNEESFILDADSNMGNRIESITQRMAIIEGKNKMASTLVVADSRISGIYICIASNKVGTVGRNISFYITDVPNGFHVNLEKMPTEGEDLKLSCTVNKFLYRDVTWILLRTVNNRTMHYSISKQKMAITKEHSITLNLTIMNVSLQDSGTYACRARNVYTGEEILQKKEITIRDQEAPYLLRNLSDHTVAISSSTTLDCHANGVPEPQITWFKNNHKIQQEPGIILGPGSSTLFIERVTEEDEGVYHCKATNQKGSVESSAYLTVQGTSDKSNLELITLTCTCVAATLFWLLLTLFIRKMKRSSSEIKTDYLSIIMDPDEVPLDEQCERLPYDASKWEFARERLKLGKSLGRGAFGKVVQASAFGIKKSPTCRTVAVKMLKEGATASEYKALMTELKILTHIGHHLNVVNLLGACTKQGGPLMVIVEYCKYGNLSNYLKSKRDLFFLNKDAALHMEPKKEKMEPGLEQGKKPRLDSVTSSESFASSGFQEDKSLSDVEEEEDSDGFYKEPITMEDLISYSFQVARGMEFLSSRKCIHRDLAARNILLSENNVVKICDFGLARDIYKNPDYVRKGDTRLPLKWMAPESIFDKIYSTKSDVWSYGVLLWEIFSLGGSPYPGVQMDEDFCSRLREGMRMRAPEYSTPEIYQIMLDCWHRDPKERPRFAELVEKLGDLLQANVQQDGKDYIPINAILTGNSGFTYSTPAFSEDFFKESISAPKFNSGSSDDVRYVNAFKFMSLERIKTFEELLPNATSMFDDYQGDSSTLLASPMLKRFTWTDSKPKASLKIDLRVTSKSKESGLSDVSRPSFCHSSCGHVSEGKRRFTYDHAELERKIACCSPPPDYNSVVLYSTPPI
Text: as §1, §2, §3, §4

VEGFR2 = VEGFR2 (Homo sapiens, UniProt P35968); assay: Kinase inhibition, Mobility Shift Assay/IMAP, VEGFR2; type: biochemical; design: purchased Carna 08-191
Sequence of VEGFR2 (P35968 790-1356 limits assumed): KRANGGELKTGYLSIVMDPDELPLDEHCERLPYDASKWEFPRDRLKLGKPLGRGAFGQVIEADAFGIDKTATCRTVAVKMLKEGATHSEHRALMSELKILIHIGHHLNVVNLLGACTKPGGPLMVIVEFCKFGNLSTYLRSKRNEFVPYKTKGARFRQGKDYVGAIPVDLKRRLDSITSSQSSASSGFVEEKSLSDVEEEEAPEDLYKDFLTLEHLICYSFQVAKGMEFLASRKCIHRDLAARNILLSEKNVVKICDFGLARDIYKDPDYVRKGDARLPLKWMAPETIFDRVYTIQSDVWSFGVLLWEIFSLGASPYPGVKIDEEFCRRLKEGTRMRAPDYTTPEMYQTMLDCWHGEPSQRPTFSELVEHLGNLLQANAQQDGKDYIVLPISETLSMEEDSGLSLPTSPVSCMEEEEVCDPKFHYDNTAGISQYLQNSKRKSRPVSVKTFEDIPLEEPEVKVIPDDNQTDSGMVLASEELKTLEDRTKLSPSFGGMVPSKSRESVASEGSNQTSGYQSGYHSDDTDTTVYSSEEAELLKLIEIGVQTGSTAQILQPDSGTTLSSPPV
In short: (§5)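 Substrate conversion (phosphorylated vs non-phosphorylated) read by mobility shift on Caliper EZ Reader II and converted to % inhibition relative to no-enzyme and DMSO controls. IC50 fitted from % inhibition versus log compound concentration.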

TIE2 = target: T3, TIE2 (Homo sapiens, UniProt Q02763); assay: Kinase inhibition, Mobility Shift Assay/IMAP, TIE2; type: biochemical
T3 construct: purchased BPS 40270
T3 sequence (Q02763 23-1124): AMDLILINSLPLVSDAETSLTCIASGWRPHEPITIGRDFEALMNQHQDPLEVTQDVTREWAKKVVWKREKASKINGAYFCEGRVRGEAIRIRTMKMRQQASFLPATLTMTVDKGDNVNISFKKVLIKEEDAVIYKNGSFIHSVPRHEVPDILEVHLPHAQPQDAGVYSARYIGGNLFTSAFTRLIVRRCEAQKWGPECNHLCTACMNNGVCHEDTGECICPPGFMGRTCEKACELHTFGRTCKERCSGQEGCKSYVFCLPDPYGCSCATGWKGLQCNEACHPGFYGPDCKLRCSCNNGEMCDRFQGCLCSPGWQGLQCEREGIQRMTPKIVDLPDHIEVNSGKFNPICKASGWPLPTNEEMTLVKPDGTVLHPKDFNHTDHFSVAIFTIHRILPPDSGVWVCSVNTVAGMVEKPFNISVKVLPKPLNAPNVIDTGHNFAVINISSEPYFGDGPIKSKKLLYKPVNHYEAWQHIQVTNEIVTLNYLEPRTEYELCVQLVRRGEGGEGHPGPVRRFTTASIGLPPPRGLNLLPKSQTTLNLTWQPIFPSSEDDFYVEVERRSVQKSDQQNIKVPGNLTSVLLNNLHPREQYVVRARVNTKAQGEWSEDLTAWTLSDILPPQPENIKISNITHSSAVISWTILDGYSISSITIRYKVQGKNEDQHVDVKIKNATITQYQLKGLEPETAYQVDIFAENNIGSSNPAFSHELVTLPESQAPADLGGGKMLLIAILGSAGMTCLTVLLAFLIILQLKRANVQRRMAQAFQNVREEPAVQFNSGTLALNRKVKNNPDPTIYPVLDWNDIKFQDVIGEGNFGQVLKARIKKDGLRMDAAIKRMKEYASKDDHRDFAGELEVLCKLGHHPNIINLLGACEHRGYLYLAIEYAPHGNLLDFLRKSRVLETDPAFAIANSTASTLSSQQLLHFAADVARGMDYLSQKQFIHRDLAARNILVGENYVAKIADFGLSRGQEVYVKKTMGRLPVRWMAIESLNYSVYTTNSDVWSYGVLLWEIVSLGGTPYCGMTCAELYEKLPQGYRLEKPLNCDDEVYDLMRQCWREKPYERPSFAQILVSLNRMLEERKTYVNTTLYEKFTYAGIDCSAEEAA
Text: as §1, §2, §3, §4

EGFR = target: T4, EGFR (Homo sapiens, UniProt P00533); assay: Kinase inhibition, Mobility Shift Assay/IMAP, EGFR; type: biochemical
T4 construct: purchased Carna 08-115
T4 sequence (P00533 669-1210 limits assumed): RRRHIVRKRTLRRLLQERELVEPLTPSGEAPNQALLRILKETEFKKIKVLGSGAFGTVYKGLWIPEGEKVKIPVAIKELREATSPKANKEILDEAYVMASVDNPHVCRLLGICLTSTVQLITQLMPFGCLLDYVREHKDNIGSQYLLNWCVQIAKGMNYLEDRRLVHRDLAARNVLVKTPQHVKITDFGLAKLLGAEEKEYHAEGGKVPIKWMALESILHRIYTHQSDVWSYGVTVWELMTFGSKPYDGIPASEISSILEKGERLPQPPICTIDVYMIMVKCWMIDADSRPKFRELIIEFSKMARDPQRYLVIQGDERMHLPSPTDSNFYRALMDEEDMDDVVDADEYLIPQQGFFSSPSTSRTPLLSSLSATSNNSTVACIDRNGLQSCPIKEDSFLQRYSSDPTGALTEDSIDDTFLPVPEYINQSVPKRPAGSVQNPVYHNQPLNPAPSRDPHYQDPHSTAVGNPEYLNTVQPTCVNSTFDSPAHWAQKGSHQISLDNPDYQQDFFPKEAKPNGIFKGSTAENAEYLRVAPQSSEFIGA
In short: as §5

melanin = assay: Binding capacity of compounds to melanin; type: in vitro ADME, cuttlefish (Sepia officinalis); conditions: cuttlefish (Sepia officinalis), melanin suspension (1 mg/mL); 1 mg/mL melanin in PBS pH 7.4, 2 μM compound, 2 h at 37° C.; read-out: Fu % (percentage of free drug)
Text: Pigmented eye tissues contain melanin in intracellular melanosomes. Drugs bind to melanin to varying degrees, ranging from non-binding to extensive binding. Therefore, melanin binding is an important feature that affects drug delivery and biodistribution in the eye. The binding capacity of the compound to the melanin must be considered in the development of ophthalmic drugs.
Melanin was derived from the melanin of cuttlefish (Sepia officinalis) and was commercially available from Sigma Aldrich (St Louis, MO).
First, prepare 1 mg/mL melanin suspension with PBS (pH 7.4). As a washing step for the matrix, centrifuge the suspended particles for 5 min at 3000 rpm. Resuspend the resulting particles in a fresh PBS buffer, heat to 37° C. over continuous shaking and incubate it for 1 h. Accurately pipette 2 μL of the test stock solution (0.1 mM) into 98 μL of melanin suspension (1 mg/mL) to achieve a final incubation concentration of 2 μM. Similarly, accurately pipette 2 μL of the stock solution (0.1 mM) to 98 μL of PBS buffer (containing 0.1% BSA) as a blank control sample. Incubate the samples in a shaker (80-90 rpm) for 2 h at 37° C. Then, centrifuge the samples at room temperature. Pipette 50 μL of the supernatant and add 50 μL of precipitant (containing an internal standard). After protein precipitation of all the above samples, centrifuge the samples to collect the supernatants, dilute the supernatants with water (if necessary) and inject them for analysis. At the same time, measure the positive controls, including the high-binding compounds Sunitinib and chloroquine and the low-binding compound celecoxib. Establish an LC-MS/MS method for determining compound concentrations, and calibrate the peak area ratio of analyte/internal standard (Analyte/AIS) in the measured sample by the dilution factor to take it as an alternative concentration for the sample for data processing. The binding rate (Fb) of a compound in melanin was calculated as: […]
Ctest was the concentration of the compound in the melanin-incubated sample or the peak area ratio of the test compound to the internal standard. Ccontrol was the concentration of the compound in the blank control sample or the peak area ratio of the test compound to the internal standard. […]

T1 sequence (P35916 25-1363): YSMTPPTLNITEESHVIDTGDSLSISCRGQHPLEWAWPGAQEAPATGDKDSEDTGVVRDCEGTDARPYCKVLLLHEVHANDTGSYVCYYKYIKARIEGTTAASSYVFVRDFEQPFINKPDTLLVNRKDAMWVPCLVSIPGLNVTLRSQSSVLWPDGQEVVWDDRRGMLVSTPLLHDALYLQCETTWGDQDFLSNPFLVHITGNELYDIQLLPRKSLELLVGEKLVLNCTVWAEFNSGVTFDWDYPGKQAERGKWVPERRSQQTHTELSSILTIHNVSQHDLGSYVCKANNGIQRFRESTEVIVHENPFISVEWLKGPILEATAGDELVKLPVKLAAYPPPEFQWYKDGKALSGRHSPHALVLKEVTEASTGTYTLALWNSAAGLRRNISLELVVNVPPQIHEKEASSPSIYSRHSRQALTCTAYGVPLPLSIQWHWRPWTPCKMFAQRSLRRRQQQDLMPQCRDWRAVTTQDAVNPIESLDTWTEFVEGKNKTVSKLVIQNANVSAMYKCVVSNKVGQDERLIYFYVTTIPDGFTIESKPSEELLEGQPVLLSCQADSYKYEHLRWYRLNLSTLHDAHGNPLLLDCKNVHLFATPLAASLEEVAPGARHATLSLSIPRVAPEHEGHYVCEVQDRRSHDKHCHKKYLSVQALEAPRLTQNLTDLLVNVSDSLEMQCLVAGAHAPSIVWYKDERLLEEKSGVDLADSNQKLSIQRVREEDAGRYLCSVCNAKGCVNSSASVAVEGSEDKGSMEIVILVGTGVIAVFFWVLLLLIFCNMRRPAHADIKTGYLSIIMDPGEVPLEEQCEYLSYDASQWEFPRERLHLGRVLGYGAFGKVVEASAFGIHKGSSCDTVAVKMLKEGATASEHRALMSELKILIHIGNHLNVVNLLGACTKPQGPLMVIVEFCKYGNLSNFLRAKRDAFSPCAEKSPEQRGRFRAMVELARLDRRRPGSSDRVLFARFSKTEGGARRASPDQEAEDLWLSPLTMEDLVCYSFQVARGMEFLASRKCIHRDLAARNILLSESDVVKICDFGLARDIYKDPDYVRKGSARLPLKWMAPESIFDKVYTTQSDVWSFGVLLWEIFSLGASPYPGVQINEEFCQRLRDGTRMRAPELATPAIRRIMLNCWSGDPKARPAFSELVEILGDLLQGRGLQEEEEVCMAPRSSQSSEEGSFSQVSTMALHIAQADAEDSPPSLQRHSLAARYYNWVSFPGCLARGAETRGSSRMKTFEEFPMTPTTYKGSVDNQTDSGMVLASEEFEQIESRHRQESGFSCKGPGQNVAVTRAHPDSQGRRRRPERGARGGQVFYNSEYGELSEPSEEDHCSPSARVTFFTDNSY

NC(=O)c1c(OCc2c(F)cc(Br)cc2F)nsc1Nc1cnn(CCN2CCNCC2)c1 [Compound T050, 3-((4-bromo-2,6-difluorobenzyl)oxy)-5-((1-(2-(piperazin-1-yl)ethyl)-1H-pyrazol-4-yl)amino)isothiazole-4-carboxamide]
IC50 (VEGFR3): 16.1 nM | IC50 (VEGFR1): 6.08 nM | IC50 (VEGFR2): 3.68 nM

CN(C)CCCn1ncc(Nc2snc(OCc3c(F)cc(Br)cc3F)c2C(N)=O)n1 [Compound T052, 3-((4-bromo-2,6-difluorobenzyl)oxy)-5-((2-(3-(dimethylamino)propyl)-2H-1,2,3-triazol-4-yl)amino)isothiazole-4-carboxamide]
IC50 (VEGFR3): 18.7 nM | IC50 (VEGFR1): 42.1 nM | IC50 (VEGFR2): 8.17 nM

NC(=O)c1c(OCc2ccc3ccoc3c2)nsc1NC(=O)NCCCCN1CCCC1 [Compound T054, 3-(benzofuran-6-ylmethoxy)-5-(3-(4-(pyrrolidin-1-yl)butyl)ureido)isothiazole-4-carboxamide]
IC50 (VEGFR3): 38.8 nM | IC50 (VEGFR1): 34.3 nM | IC50 (VEGFR2): 17.7 nM | IC50 (TIE2): 157 nM

CCNC(=O)c1cccc(COc2nsc(NC(=O)NCCCCN3CCCC3)c2C(N)=O)c1 [Compound T058, 3-((3-(ethylcarbamoyl)benzyl)oxy)-5-(3-(4-(pyrrolidin-1-yl)butyl)ureido)isothiazole-4-carboxamide]
IC50 (VEGFR1): 30 nM | IC50 (VEGFR2): 20.9 nM | IC50 (EGFR): > 60000 nM | fraction unbound at 2 h, 2 μM (melanin): 0.0225

COc1cc(COc2nsc(NC(=O)NCCCCN3CCC(F)(F)C3)c2C(N)=O)cc(OC)c1 [Compound T063, 5-(3-(4-(3,3-difluoropyrrolidin-1-yl)butyl)ureido)-3-((3,5-dimethoxybenzyl)oxy)isothiazole-4-carboxamide]
IC50 (VEGFR3): 39.1 nM | IC50 (VEGFR2): 63 nM | IC50 (TIE2): 1000 nM | IC50 (EGFR): > 60000 nM | fraction unbound at 2 h, 2 μM (melanin): 0.0871

NC(=O)c1c(OCc2cccc(C(=O)NC3CC3)c2)nsc1NC(=O)NCCN1CCCC1 [Compound T066, 3-((3-(cyclopropylcarbamoyl)benzyl)oxy)-5-(3-(2-(pyrrolidin-1-yl)ethyl)ureido)isothiazole-4-carboxamide]
IC50 (VEGFR1): 37.9 nM | IC50 (VEGFR2): 77.8 nM | IC50 (TIE2): 10000 nM | IC50 (EGFR): > 60000 nM

CN1CCC(CCNC(=O)Nc2snc(OCc3ccc4c(c3F)OCC4)c2C(N)=O)CC1 [Compound T075, 3-((7-fluoro-2,3-dihydrobenzofuran-6-yl)methoxy)-5-(3-(2-(1-methylpiperidin-4-yl)ethyl)ureido)isothiazole-4-carboxamide]
IC50 (VEGFR3): 48.8 nM | IC50 (VEGFR1): 44 nM | IC50 (VEGFR2): 23 nM | IC50 (EGFR): 24300 nM | fraction unbound at 2 h, 2 μM (melanin): 0.0391

CCN1CCC(CCNC(=O)Nc2snc(OCc3ccc4c(c3)OCC4)c2C(N)=O)CC1 [Compound T076, 3-(2,3-dihydrobenzofuran-6-ylmethoxy)-5-[2-(1-ethyl-4-piperidyl)ethylcarbamoylamino]isothiazole-4-carboxamide]
IC50 (VEGFR3): 23.8 nM | IC50 (VEGFR1): 26.7 nM | IC50 (VEGFR2): 12.6 nM | IC50 (EGFR): 43600 nM | fraction unbound at 2 h, 2 μM (melanin): 0.0311

CN1CCN(CCCNC(=O)Nc2snc(OCc3ccc4c(c3)OCC4)c2C(N)=O)CC1 [Compound T077, 3-(2,3-dihydrobenzofuran-6-ylmethoxy)-5-[3-(4-methylpiperazin-1-yl)propylcarbamoylamino]isothiazole-4-carboxamide]
IC50 (VEGFR3): 44 nM | IC50 (VEGFR1): 33 nM | IC50 (VEGFR2): 7.01 nM | IC50 (EGFR): 52000 nM | fraction unbound at 2 h, 2 μM (melanin): 0.0385

NC(=O)c1c(OCc2cc3c(cc2F)CCO3)nsc1NC(=O)NCCCN1CC[C@@H](F)C1 [Compound T080, 3-[(5-fluoro-2,3-dihydrobenzofuran-6-yl)methoxy]-5-[3-[(3R)-3-fluoropyrrolidin-1-yl]propylcarbamoylamino]isothiazole-4-carboxamide]
IC50 (VEGFR3): 26.1 nM | IC50 (VEGFR1): 13.5 nM | IC50 (TIE2): 88 nM | IC50 (EGFR): 8050 nM | fraction unbound at 2 h, 2 μM (melanin): 0.0582

NC(=O)c1c(OCc2cc3c(cc2F)CCO3)nsc1NC(=O)NCCN1CC[C@@H](F)C1 [Compound T081, 3-[(5-fluoro-2,3-dihydrobenzofuran-6-yl)methoxy]-5-[2-[(3R)-3-fluoropyrrolidin-1-yl]ethylcarbamoylamino]isothiazole-4-carboxamide]
IC50 (VEGFR3): 23.9 nM | IC50 (VEGFR1): 21.9 nM | IC50 (VEGFR2): 16 nM | IC50 (EGFR): 19600 nM | fraction unbound at 2 h, 2 μM (melanin): 0.0632

NC(=O)c1c(OCc2cc3c(cc2F)CCO3)nsc1NC(=O)NCCN1CCCCC1 [Compound T082, 3-[(5-fluoro-2,3-dihydrobenzofuran-6-yl)methoxy]-5-[2-(1-piperidyl)ethylcarbamoylamino]isothiazole-4-carboxamide]
IC50 (VEGFR3): 48.5 nM | IC50 (VEGFR1): 27.8 nM | IC50 (VEGFR2): 24 nM | IC50 (TIE2): 203 nM | IC50 (EGFR): 15500 nM | fraction unbound at 2 h, 2 μM (melanin): 0.0757

NC(=O)c1c(OCc2ccc3c(c2)OCC3)nsc1NC(=O)NCCC1CCN(C2CC2)CC1 [Compound T083, 5-[2-(1-cyclopropyl-4-piperidyl)ethylcarbamoylamino]-3-(2,3-dihydrobenzofuran-6-ylmethoxy)isothiazole-4-carboxamide]
IC50 (VEGFR3): 22.3 nM | IC50 (VEGFR1): 25.6 nM | IC50 (VEGFR2): 12.7 nM | IC50 (TIE2): 164 nM | IC50 (EGFR): 18100 nM | fraction unbound at 2 h, 2 μM (melanin): 0.0749

NC(=O)c1c(OCc2ccc3c(c2)OCC3)nsc1NC(=O)NCCC1CCN(CCF)CC1 [Compound T084, 3-(2,3-dihydrobenzofuran-6-ylmethoxy)-5-[2-[1-(2-fluoroethyl)-4-piperidyl]ethylcarbamoylamino]isothiazole-4-carboxamide]
IC50 (VEGFR3): 37.1 nM | IC50 (VEGFR1): 30.1 nM | IC50 (VEGFR2): 14.1 nM | IC50 (TIE2): 221 nM | IC50 (EGFR): 15800 nM

NC(=O)c1c(OCc2cc(F)cc(C(=O)NC3CC3)c2)nsc1NC(=O)NCCCCN1CCCC1 [Compound T085, 3-[[3-(cyclopropylcarbamoyl)-5-fluoro-phenyl]methoxy]-5-(4-pyrrolidin-1-ylbutylcarbamoylamino)isothiazole-4-carboxamide]
IC50 (VEGFR3): 10.6 nM | IC50 (VEGFR1): 4.95 nM | IC50 (VEGFR2): 1.7 nM | IC50 (TIE2): 4590 nM | IC50 (EGFR): > 60000 nM | fraction unbound at 2 h, 2 μM (melanin): 0.0612

CN1CCC(CCNC(=O)Nc2snc(OCc3cc(F)c4c(c3)OCC4)c2C(N)=O)CC1 [Compound T089, 3-((4-fluoro-2,3-dihydrobenzofuran-6-yl)methoxy)-5-(3-(2-(1-methylpiperidin-4-yl)ethyl)ureido)isothiazole-4-carboxamide]
IC50 (VEGFR3): 9.9 nM | IC50 (VEGFR1): 13.5 nM | IC50 (VEGFR2): 6.77 nM | IC50 (TIE2): 135 nM | IC50 (EGFR): 15100 nM | fraction unbound at 2 h, 2 μM (melanin): 0.0235

COc1ccc(F)c(COc2nsc(NC(=O)NCCCCN3CCOCC3)c2C(N)=O)c1F [Compound T132, 3-[(2,6-difluoro-3-methoxy-phenyl)methoxy]-5-(4-morpholinobutylcarbamoylamino)isothiazole-4-carboxamide]
IC50 (VEGFR2): 14.7 nM | IC50 (TIE2): 163 nM | IC50 (EGFR): 19200 nM | fraction unbound at 2 h, 2 μM (melanin): 0.0363

COc1cc(OC)c(F)c(COc2nsc(NC(=O)NCCCCN3CC[C@@H](O)C3)c2C(N)=O)c1F [Compound T135, 3-[(2,6-difluoro-3,5-dimethoxy-phenyl)methoxy]-5-[4-[(3R)-3-hydroxypyrrolidin-1-yl]butylcarbamoylamino]isothiazole-4-carboxamide]
IC50 (VEGFR2): 1.9 nM | IC50 (TIE2): 97 nM | IC50 (EGFR): > 60000 nM | fraction unbound at 2 h, 2 μM (melanin): 0.02
